Measurements: the NIST ThermoML archive (doi:10.1021/je7003947)
“And” between values parts separate entries of the source, which are not always exact repeats. Identical values can stand only once. ± gives the expanded uncertainty stated by the source.

Conditions: Liquid, Closed cell (Static) method

Compound: CC(C)(C)O [2-methylpropan-2-ol]
- vapor or sublimation pressure (323.2 K): 23.8 ± 1.4 kPa

Compound: CCC(C)O (stereo not drawn) [butan-2-ol]
- vapor or sublimation pressure (323.17 K): 10.7 ± 1.4 kPa

Compound: CCCC [butane]
- vapor or sublimation pressure (323.12 K): 495 ± 2.2 kPa
- vapor or sublimation pressure (323.13 K): 495.3 ± 2.2 kPa
- vapor or sublimation pressure (323.15 K): 495.6 ± 1.8 kPa and 495.7 ± 2.2 kPa

Compound: CCO [ethanol]
- vapor or sublimation pressure (323.14 K): 29.4 ± 1.4 kPa

Compound: CO [methanol]
- vapor or sublimation pressure (323.13 K): 55.5 ± 1.4 kPa

Compound: CC(C)O [propan-2-ol]
- vapor or sublimation pressure (323.19 K): 23.6 ± 0.2 kPa
